In patent US20160237059A1, “HETEROCYCLIC SUBSTITUTED TRIFLUOROMETHYL PYRIMIDINONES AND THEIR USE” (BAYER PHARMA AKTIENGESELLSCHAFT, priority 2013, published 2016):

Assays:
[1] = target: T1, human CCR2 (Homo sapiens, UniProt P41597); assay: Functional Ca2+ release test (B-1); type: cell-based; settings: Chem-1 cell line transfected with human CCR2; 50% inhibition of the MCP-1 effect, MCP-1 at EC50 (about 5 nM); in some cases means of several determinations
T1 construct: host or cells: Chem-1 cell line
T1 sequence (P41597 1-360 isoform P41597-2): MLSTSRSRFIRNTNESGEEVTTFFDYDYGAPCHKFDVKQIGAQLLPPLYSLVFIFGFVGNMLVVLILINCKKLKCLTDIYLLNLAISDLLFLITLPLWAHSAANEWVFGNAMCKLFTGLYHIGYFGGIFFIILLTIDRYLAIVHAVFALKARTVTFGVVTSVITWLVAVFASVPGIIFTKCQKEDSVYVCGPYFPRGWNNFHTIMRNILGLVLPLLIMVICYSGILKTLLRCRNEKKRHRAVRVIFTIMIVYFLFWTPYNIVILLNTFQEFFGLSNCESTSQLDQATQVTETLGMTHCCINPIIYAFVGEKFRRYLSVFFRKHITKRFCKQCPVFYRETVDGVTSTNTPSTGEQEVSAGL
Protocol: The antagonistic action of test substances on CCR2 was determined in a functional Ca^2+ release test. Binding of CCL2/MCP-1 to CCR2 leads to a change in the conformation of the receptor resulting in Gi/Gq protein activation and intracellular signal cascade. This involves, inter alia, an intracellular Ca^2+ release. The test cell used was a Chem-1 cell line transfected with human CCR2 (ChemiSCREEN™ CCR2B Calcium-Optimized FLIPR Cell Line, Merck Millipore).
(§1) The test substances were dissolved in dimethyl sulphoxide (DMSO) at a concentration of 10 mM and serially diluted with DMSO in steps of 1:3.16 for a 10-point dose/activity analysis. According to the desired test concentrations, the substances were pre-diluted in Tyrode with 2 mM CaCl2 and 0.05% BSA.
The cells, cultivated in DMEM high glucose [supplemented with 10% FCS, 1 mM pyruvate, 15 mM HEPES, 500 μg/ml geniticin and non-essential amino acids (NEAA)], were sown at 5000 cells/25 μl in 384 well, μCLEAR/black cell culture plates from Greiner (#781092) and incubated at 37° C. for 24 h. The sowing medium consisted of DMEM high glucose [supplemented with 5% FCS, 1 mM pyruvate, 15 mM HEPES, 50 U/ml penicillin, 50 μg/ml streptomycin and non-essential amino acids (NEAA)]. The medium was then removed and the cells were charged for 60 min at 37° C. with Fluo-4 dye [25 μl Tyrode with 3 μM Fluo-4 AM (1 mM DMSO stock solution), 0.4 mg/ml Brilliant Black, 2.5 mM probenicid, 0.03% Pluronic F-127]. The cells were pre-incubated for 10 min with 10 μl of the test substances diluted in buffer, and 20 μl of agonist solution (MCP-1 in Tyrode with 0.05% BSA) were then added. MCP-1 was employed at the concentration which corresponds to the EC50 which had been determined in a preliminary test (usually about 5 nM). Ca^2+ release was monitored over a period of 120 s in 1 s increments in a proprietary fluorescence imaging reader. The molar concentration of the test substance which caused 50% inhibition of the MCP-1 effect (IC50) was determined using a 4-parameter logistic function (Hill function).

[2] = target: T2, murine CCR2 (Mus musculus, UniProt P51683); assay: Functional β-arrestin recruiting test with murine MCP-1 (B-2b); type: cell-based; settings: U2OS β-arrestin cell line transfected with murine CCR2; agonist murine MCP-1; in some cases means of several determinations
T2 construct: host or cells: U2OS β-arrestin cell line
T2 sequence (P51683 whole entry): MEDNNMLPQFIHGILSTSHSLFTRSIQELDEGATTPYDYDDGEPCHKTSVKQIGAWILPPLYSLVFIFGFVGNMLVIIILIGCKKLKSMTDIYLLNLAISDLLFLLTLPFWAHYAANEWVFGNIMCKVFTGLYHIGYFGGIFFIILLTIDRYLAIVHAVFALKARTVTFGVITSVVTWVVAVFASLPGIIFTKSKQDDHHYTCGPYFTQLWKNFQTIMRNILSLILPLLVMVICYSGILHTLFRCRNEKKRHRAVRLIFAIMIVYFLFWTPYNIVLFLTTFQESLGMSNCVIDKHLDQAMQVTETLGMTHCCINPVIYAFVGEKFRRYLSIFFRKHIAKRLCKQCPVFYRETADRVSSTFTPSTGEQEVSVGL
Protocol: The antagonistic action of test substances on CCR2 was determined in a β-arrestin test. The PathHunter β-arrestin GPCR test system (DiscoveRx Corporation, Ltd.) is a cell-based functional method for detecting binding of β-arrestin to an activated receptor. The molecular basis is a […] complementation measured by the enzymatic conversion of a chemiluminescent substrate. The test cell used was a U2OS β-arrestin cell line transfected with murine CCR2 (93-0543C3, DiscoveRx Corporation, Ltd.).
as §1
The cells, cultivated in MEM Eagle (supplemented with 10% FCS, 50 U/ml of penicillin, 50 μg/ml of streptomycin, 250 μg/ml of hygromycin and 500 μg/ml of geniticin), were sown at 2000 cells/25 μl in 384 well, μCLEAR/black cell culture plates from Greiner (#781092) and incubated at 37° C. for 24 h. The sowing medium consisted of Opti-MEM (supplemented with 1% FCS, 50 U/ml of penicillin and 50 μg/ml of streptomycin). The cells were pre-incubated for 10 min with 10 μl of the test substances diluted in buffer, and 10 μl of agonist solution [human MCP-1 (PeproTech, #300-04) in Tyrode with 0.05% BSA) were then added. The human MCP-1 was employed at the concentration which corresponds to the EC50 which had been determined in a preliminary test (usually about 3 nM). After 90 min of incubation at 37° C., the solution was removed, and recruitment of β-arrestin to CCR2 was detected with the aid of the PathHunter detection reagent (93-001, DiscoveRx Corporation, Ltd.) according to the instructions of the manufacturer. Luminescence was measured after an incubation time of 60 min using a proprietary luminescence imaging measuring instrument. The molar concentration of the test substance which caused 50% inhibition of the MCP-1 effect (IC50) was determined using a 4-parameter logistic function (Hill function).
The test was carried out in a manner identical to that described above under B-2a, but using murine MCP-1 (PeproTech, #250-10) as agonist.

SMILES	IC50 [1] [nM]	IC50 [2] [nM]
Cc1ccc(-c2nc(C(F)(F)F)c(Oc3ccc(Cl)c(Cl)c3)c(=O)[nH]2)nc1C [Example 157, 5-(3,4-dichlorophenoxy)-2-(5,6-dimethylpyridin-2-yl)-6-(trifluoromethyl)pyrimidin-4(3H)-one]	14	1510
Nc1ccc(-c2nc(C(F)(F)F)c(Oc3ccc(Cl)c(Cl)c3)c(=O)[nH]2)nn1 [Example 121, 2-(6-aminopyridazin-3-yl)-5-(3,4-dichlorophenoxy)-6-(trifluoromethyl)pyrimidin-4(3H)-one]	0.5	149
CC(C)(C)Oc1cccc(-c2nc(C(F)(F)F)c(Oc3ccc(Cl)c(Cl)c3)c(=O)[nH]2)n1 [Example 146, 2-(6-tent-butoxypyridin-2-yl)-5-(3,4-dichlorophenoxy)-6-(trifluoromethyl)pyrimidin-4(3H)-one]	404	3500
CC(C)Oc1ccc(-c2nc(C(F)(F)F)c(Oc3ccc(Cl)c(Cl)c3)c(=O)[nH]2)cn1 [Example 163, 5-(3,4-dichlorophenoxy)-2-(6-isopropoxypyridin-3-yl)-6-(trifluoromethyl)pyrimidin-4(3H)-one]	129	7680
O=c1[nH]c(-n2ncc3ncccc32)nc(C(F)(F)F)c1Oc1ccc(Cl)c(Cl)c1 [Example 258]	9.9	949
CC(=O)Nc1ccc2c(-c3nc(C(F)(F)F)c(Oc4ccc(Cl)c(C(F)(F)F)c4)c(=O)[nH]3)noc2c1 [Example 209]	22	368
O=c1[nH]c(-c2ccsn2)nc(C(F)(F)F)c1Oc1ccc(Cl)c(Cl)c1 [Example 233]	0.2	43
Cn1nc(-c2nc(C(F)(F)F)c(Oc3ccc(Cl)c(C(F)(F)F)c3)c(=O)[nH]2)c2ccccc21 [Example 137, 5-[4-chloro-3-(trifluoromethyl)phenoxy]-2-(1-methyl-1H-indazol-3-yl)-6-(trifluoromethyl)pyrimidin-4(3H)-one]	16	334
O=c1[nH]c(-c2ccnnc2)nc(C(F)(F)F)c1Oc1ccc(Cl)c(Cl)c1 [Example 126, 5-(3,4-dichlorophenoxy)-2-(pyridazin-4-yl)-6-(trifluoromethyl)pyrimidin-4(3H)-one]	1120	13900
O=c1[nH]c(-c2nsc(Cl)c2Cl)nc(C(F)(F)F)c1Oc1ccc(Cl)c(Cl)c1 [Example 227]	6.4	164
CC(C)(C)Sc1cccnc1-c1nc(C(F)(F)F)c(Oc2ccc(Cl)c(C(F)(F)F)c2)c(=O)[nH]1 [Example 190]	62	2110
COc1cc(C)nc(-c2nc(C(F)(F)F)c(Oc3ccc(Cl)c(Cl)c3)c(=O)[nH]2)n1 [Example 183, 5-(3,4-dichlorophenoxy)-4′-methoxy-6′-methyl-6-(trifluoromethyl)-2,2′-bipyrimidin-4(3H)-one]	2.9	145
COc1cnn(-c2nc(C(F)(F)F)c(Oc3ccc(Cl)c(Cl)c3)c(=O)[nH]2)c1 [Example 249]	0.9	254
COc1ccc2c(-c3nc(C(F)(F)F)c(Oc4ccc(Cl)c(Cl)c4)c(=O)[nH]3)noc2c1 [Example 208]	77	9580
O=c1[nH]c(-c2cc(C3CC3)on2)nc(C(F)(F)F)c1Oc1ccc(Cl)c(Cl)c1 [Example 219]	7.2	1040

Now from value to compound:

IC50 [1] [nM]	IC50 [2] [nM]	SMILES
0.3	170	Cc1cc(-c2nc(C(F)(F)F)c(Oc3ccc(Cl)c(C(F)(F)F)c3)c(=O)[nH]2)no1 [Example 232]
0.5	44	COc1cncnc1-c1nc(C(F)(F)F)c(Oc2ccc(Cl)c(C(F)(F)F)c2)c(=O)[nH]1 [Example 120, 5-[4-chloro-3-(trifluoromethyl)phenoxy]-5′-methoxy-6-(trifluoromethyl)-2,4′-bipyrimidin-4(3H)-one]
1.4	412	COc1cccnc1-c1nc(C(F)(F)F)c(Oc2ccc(Cl)c(OC(F)(F)F)c2)c(=O)[nH]1 [Example 138]
20	796	COc1nn(C)cc1-c1nc(C(F)(F)F)c(Oc2ccc(Cl)c(C(F)(F)F)c2)c(=O)[nH]1 [Example 235]
0.8	221	COc1cc(C)nc(-c2nc(C(F)(F)F)c(Oc3ccc(Cl)c(C(F)(F)F)c3)c(=O)[nH]2)n1 [Example 184, 5-[4-chloro-3-(trifluoromethyl)phenoxy]-4′-methoxy-6′-methyl-6-(trifluoromethyl)-2,2′-bipyrimidin-4(3H)-one]
1.3	447	COCc1cc(-c2nc(C(F)(F)F)c(Oc3ccc(Cl)c(C(F)(F)F)c3)c(=O)[nH]2)no1 [Example 221]
0.1	6.1	CSc1cccnc1-c1nc(C(F)(F)F)c(Oc2ccc(Cl)c(C(F)(F)F)c2)c(=O)[nH]1 [Example 114]
5	693	CSc1ccnc(-c2nc(C(F)(F)F)c(Oc3ccc(Cl)c(C(F)(F)F)c3)c(=O)[nH]2)c1 [Example 191, 5-[4-chloro-3-(trifluoromethyl)phenoxy)-2-[4-(methylsulphanyl)pyridin-2-yl]-6-(trifluoromethyl)pyrimidin-4(3H)-one]
3.8	259	O=c1[nH]c(-c2cnccn2)nc(C(F)(F)F)c1Oc1ccc(Cl)c(C(F)(F)F)c1 [Example 132, 5-[4-chloro-3-(trifluoromethyl)phenoxy]-2-(pyrazin-2-yl)-6-(trifluoromethyl)pyrimidin-4(3H)-one]
2.6	89	O=c1[nH]c(-c2nscc2O)nc(C(F)(F)F)c1Oc1ccc(Cl)c(C(F)(F)F)c1 [Example 239]
1.8	196	CS(=O)(=O)c1cccnc1-c1nc(C(F)(F)F)c(Oc2ccc(Cl)c(C(F)(F)F)c2)c(=O)[nH]1 [Example 266, 5-[4-Chloro-3-(trifluoromethyl)phenoxy]-2-[3-(methylsulphonyl)pyridin-2-yl]-6-(trifluoromethyl)pyrimidin-4(3H)-one]
0.7	87	Nc1ccc(-c2nc(C(F)(F)F)c(Oc3ccc(Cl)c(C(F)(F)F)c3)c(=O)[nH]2)nn1 [Example 153, 2-(6-aminopyridazin-3-yl)-5-[4-chloro-3-(trifluoromethyl)phenoxy]-6-(trifluoromethyl)pyrimidin-4(3H)-one]
